Laboratory results reported in ChEMBL document CHEMBL5696442, “Discovery of type II inhibitors of TGFβ-activated kinase 1 (TAK1) and mitogen-activated protein kinase kinase kinase kinase 2 (MAP4K2)” (J Med Chem, 2015).
Calls of active or inactive are those of the source. No cut-off for these calls is given here.

Key:
[1] = tested on: Tyrosine-protein kinase ABL1 (Homo sapiens), P00519 [E255K]; experiment: Inhibition of ABL1 E255K mutant (unknown origin) at 10 uM by Ambit Kinomescan binding assay relative to control
[2] = target: Cyclin-dependent kinase 9 (Homo sapiens) (UniProt P50750); experiment: Inhibition of CDK9 (unknown origin) at 10 uM by Ambit Kinomescan binding assay relative to control
[3] = target: Serine/threonine-protein kinase DCLK2 (Homo sapiens) (UniProt Q8N568); experiment: Inhibition of DCAMKL2 (unknown origin) at 10 uM by Ambit Kinomescan binding assay
[4] = target: Interleukin-1 receptor-associated kinase 3 (Homo sapiens) (UniProt Q9Y616); experiment: Inhibition of IRAK3 (unknown origin) at 10 uM by Ambit Kinomescan binding assay
[5] = target: Serine/threonine-protein kinase ATR (Homo sapiens) (UniProt Q13535); experiment: Inhibition of ATR ATP labeling site in human A-375 cells at 5 uM by KiNativ Profiling analysis relative to control; type: cell-based
[6] = target: Non-receptor tyrosine-protein kinase TYK2 (Homo sapiens) (UniProt P29597); experiment: Inhibition of TYK2 domain2 ACT labeling site in human A-375 cells at 0.5 uM by KiNativ Profiling analysis relative to control; type: cell-based
[7] = target: Tyrosine-protein kinase CSK (Homo sapiens, UniProt P41240); experiment: Inhibition of CSK ACT labeling site harbouring VSDFGLTKEASSTQDTGK in human Huh-7 cells at 10 uM by KiNativ Profiling analysis relative to control; type: cell-based
[8] = target: Serine/threonine-protein kinase mTOR (Homo sapiens) (UniProt P42345); experiment: Inhibition of FRAP ATP labeling site in human Huh-7 cells at 10 uM by KiNativ Profiling analysis relative to control; type: cell-based
[9] = target: eIF-2-alpha kinase GCN2 (Homo sapiens) (UniProt Q9P2K8); experiment: Inhibition of GCN2 K2 labeling site in human Huh-7 cells at 10 uM by KiNativ Profiling analysis relative to control; type: cell-based
[10] = Inhibition of KHS1 Lys2 labeling site harbouring DIKGANILLTDHGDVKLADFGVAAK in human Huh-7 cell lysate at 1 uM by KiNativ Profiling analysis relative to control; conditions: condition cancer
[11] = target: Phosphatidylinositol 4-phosphate 3-kinase C2 domain-containing subunit beta (Homo sapiens) (UniProt O00750); experiment: Inhibition of PIK3C2B ATP labeling site in human Huh-7 cell lysate at 1 uM by KiNativ Profiling analysis relative to control; type: subcellular
[12] = target: Calcium/calmodulin-dependent protein kinase type 1 (Homo sapiens) (UniProt Q14012); experiment: Inhibition of CaMK1a Lys1 labeling site in human Huh-7 cells at 1 uM by KiNativ Profiling analysis relative to control; type: cell-based
[13] = target: Serine/threonine-protein kinase 16 (Homo sapiens) (UniProt O75716); experiment: Inhibition of MPSK1 Lys2 labeling site in human Huh-7 cells at 1 uM by KiNativ Profiling analysis relative to control; type: cell-based
[14] = target: T1, Serine/threonine-protein kinase Nek9 (Homo sapiens) (UniProt Q8TD19); experiment: Inhibition of NEK9 Lys2 labeling site in human Huh-7 cells at 1 uM by KiNativ Profiling analysis relative to control; type: cell-based
T1 sequence (whole entry): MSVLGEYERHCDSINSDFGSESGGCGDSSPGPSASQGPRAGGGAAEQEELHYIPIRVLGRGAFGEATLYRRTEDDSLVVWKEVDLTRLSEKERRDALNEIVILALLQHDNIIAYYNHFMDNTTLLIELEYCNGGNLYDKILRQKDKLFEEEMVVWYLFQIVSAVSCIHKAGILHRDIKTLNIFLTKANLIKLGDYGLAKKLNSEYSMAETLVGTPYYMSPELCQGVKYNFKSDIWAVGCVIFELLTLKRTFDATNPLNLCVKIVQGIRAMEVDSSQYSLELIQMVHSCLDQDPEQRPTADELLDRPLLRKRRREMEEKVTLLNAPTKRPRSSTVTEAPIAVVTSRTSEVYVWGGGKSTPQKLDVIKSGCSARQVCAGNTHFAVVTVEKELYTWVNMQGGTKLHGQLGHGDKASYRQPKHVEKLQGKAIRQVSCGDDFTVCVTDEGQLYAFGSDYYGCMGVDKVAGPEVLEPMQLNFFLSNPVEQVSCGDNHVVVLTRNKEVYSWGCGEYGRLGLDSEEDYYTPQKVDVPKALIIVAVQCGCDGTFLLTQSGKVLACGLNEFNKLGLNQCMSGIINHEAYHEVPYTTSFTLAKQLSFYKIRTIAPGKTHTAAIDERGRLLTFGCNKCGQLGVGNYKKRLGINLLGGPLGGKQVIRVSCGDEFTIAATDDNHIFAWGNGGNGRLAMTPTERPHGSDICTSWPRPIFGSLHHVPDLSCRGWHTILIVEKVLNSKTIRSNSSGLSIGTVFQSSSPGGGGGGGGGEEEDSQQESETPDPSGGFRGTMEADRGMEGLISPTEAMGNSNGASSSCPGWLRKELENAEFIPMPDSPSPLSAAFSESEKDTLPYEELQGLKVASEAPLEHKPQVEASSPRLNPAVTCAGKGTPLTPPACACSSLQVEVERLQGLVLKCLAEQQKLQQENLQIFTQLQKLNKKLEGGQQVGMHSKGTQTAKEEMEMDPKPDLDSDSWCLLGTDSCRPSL

[15] = target: T2, Phosphatidylinositol 5-phosphate 4-kinase type-2 gamma (Homo sapiens) (UniProt Q8TBX8); experiment: Inhibition of PIP4K2C ATP labeling site harbouring TLVIKEVSSEDIADMHSNLSNYHQYIVK in human Huh-7 cells at 1 uM by KiNativ Profiling analysis relative to control; type: cell-based
T2 sequence (whole entry): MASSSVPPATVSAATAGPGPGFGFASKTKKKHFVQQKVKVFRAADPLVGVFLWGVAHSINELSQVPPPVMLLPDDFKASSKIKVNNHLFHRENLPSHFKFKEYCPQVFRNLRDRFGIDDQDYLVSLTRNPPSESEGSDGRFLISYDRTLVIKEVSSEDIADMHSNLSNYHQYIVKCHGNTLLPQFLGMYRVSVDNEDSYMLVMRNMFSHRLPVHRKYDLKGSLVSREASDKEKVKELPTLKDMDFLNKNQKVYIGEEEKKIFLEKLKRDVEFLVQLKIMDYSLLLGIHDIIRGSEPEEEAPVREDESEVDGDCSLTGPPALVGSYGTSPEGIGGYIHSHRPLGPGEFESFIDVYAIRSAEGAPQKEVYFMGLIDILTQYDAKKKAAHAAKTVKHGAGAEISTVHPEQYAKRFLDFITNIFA

Serine/threonine-protein kinase 16 (Homo sapiens), sequence (O75716 whole entry): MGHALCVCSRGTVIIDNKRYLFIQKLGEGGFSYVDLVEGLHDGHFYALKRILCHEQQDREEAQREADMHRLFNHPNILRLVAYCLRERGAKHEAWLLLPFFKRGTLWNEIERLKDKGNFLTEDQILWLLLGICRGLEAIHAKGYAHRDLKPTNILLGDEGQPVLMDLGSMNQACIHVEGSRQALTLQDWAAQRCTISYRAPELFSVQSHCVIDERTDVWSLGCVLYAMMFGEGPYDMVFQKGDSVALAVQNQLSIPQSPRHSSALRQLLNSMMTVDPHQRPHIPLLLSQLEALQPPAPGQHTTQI
Serine/threonine-protein kinase ATR (Homo sapiens), sequence (Q13535 whole entry, looked up, the tested form may be a part): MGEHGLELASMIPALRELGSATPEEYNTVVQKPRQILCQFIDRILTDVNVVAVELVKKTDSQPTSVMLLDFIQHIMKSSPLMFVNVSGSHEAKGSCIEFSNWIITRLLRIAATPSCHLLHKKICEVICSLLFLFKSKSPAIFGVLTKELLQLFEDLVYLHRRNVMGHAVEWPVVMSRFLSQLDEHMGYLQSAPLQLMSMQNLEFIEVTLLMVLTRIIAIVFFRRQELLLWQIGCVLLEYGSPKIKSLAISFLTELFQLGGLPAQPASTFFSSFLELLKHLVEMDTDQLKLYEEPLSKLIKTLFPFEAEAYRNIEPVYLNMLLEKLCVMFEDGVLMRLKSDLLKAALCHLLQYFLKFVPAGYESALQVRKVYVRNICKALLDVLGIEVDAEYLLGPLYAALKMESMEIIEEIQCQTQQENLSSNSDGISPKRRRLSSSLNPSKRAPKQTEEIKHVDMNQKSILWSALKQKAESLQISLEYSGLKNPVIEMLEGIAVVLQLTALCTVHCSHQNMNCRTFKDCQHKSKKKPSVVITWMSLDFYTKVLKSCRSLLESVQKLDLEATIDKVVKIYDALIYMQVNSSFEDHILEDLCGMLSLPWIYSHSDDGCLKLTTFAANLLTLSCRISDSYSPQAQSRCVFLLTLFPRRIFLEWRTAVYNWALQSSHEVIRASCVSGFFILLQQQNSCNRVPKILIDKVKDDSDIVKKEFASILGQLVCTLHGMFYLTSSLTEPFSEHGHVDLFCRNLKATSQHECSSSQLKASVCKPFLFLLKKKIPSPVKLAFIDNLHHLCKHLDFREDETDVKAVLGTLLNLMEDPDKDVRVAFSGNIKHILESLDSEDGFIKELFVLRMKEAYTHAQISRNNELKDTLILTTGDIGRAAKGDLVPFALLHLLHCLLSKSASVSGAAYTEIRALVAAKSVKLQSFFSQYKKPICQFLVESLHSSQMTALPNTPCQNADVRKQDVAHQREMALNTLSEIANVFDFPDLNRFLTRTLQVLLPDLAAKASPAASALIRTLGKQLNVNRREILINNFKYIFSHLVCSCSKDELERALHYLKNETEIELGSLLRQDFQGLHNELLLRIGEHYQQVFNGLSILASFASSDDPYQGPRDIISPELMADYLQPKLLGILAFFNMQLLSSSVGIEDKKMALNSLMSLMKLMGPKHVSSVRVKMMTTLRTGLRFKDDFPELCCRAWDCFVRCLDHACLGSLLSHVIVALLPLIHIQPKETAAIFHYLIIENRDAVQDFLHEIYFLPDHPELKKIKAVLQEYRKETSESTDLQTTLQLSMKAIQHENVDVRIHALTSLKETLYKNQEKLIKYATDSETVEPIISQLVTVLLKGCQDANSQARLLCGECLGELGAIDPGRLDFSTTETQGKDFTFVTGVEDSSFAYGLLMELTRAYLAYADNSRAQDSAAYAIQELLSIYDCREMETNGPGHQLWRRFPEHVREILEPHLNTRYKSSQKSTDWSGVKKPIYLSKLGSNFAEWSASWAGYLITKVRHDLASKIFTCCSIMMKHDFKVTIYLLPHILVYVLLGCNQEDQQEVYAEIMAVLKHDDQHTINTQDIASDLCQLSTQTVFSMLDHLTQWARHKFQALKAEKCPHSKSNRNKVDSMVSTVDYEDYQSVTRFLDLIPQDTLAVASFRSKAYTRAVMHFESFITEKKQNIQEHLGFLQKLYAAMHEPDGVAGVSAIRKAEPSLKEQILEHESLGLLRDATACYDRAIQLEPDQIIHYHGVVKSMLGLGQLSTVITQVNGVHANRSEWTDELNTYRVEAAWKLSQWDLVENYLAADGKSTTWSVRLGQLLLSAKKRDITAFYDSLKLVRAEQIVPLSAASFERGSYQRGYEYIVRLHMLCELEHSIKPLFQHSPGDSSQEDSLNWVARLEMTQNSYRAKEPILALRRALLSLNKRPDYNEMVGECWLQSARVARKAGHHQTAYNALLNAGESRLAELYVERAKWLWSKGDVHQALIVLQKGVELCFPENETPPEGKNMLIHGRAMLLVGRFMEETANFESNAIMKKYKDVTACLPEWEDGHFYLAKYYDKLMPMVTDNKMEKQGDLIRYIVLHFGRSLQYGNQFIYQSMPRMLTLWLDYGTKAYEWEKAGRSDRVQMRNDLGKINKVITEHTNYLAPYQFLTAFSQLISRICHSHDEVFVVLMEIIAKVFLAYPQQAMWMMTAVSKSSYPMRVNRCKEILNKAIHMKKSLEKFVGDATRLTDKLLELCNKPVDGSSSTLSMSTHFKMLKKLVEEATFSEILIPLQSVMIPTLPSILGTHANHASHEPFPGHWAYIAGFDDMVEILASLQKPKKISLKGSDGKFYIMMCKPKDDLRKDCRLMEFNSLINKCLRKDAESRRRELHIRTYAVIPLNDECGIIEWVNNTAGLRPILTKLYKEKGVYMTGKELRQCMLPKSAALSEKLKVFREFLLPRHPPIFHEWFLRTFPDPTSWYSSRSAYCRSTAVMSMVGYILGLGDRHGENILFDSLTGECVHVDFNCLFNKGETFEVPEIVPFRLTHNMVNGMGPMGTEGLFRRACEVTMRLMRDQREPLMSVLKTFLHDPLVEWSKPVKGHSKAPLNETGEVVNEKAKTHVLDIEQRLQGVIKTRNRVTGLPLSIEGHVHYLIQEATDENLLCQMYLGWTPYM
Tyrosine-protein kinase ABL1 (Homo sapiens), P00519 [E255K], sequence (P00519 whole entry E255K): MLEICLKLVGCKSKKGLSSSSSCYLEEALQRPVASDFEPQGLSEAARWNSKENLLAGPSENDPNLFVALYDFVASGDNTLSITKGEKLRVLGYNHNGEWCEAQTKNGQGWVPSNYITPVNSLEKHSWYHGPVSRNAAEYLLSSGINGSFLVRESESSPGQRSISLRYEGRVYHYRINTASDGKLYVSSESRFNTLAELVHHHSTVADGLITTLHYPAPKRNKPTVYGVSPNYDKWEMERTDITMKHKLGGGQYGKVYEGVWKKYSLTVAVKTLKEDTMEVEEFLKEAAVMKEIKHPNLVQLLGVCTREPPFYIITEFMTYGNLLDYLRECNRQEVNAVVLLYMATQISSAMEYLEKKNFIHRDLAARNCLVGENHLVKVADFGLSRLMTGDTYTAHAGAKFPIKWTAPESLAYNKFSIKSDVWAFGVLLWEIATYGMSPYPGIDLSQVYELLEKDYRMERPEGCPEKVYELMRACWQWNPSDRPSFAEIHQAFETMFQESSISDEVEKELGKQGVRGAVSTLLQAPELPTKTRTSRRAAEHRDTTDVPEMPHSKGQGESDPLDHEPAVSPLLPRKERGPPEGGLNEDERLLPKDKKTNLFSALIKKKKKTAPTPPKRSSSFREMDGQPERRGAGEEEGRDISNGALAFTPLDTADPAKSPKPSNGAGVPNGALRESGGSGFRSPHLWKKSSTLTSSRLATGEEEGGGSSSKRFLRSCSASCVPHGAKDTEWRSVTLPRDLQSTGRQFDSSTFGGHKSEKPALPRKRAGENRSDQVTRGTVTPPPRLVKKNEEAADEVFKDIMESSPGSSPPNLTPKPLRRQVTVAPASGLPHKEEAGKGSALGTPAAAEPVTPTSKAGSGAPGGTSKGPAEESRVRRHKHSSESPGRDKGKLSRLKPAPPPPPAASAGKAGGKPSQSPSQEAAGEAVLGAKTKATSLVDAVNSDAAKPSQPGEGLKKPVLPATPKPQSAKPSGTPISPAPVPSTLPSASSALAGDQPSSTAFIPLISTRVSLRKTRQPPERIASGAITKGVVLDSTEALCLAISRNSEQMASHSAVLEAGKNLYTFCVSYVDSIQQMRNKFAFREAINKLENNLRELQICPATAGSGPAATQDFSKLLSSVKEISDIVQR
Calcium/calmodulin-dependent protein kinase type 1 (Homo sapiens), sequence (Q14012 whole entry, looked up): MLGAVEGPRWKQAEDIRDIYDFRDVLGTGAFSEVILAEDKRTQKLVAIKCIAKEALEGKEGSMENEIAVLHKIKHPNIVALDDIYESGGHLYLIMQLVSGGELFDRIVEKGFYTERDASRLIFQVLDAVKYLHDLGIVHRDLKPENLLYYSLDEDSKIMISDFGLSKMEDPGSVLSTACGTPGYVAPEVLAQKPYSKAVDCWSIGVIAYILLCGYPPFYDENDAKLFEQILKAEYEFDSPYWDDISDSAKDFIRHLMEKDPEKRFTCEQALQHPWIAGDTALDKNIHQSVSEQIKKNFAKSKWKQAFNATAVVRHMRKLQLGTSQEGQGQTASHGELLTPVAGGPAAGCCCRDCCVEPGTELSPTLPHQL
Interleukin-1 receptor-associated kinase 3 (Homo sapiens), sequence (Q9Y616 whole entry): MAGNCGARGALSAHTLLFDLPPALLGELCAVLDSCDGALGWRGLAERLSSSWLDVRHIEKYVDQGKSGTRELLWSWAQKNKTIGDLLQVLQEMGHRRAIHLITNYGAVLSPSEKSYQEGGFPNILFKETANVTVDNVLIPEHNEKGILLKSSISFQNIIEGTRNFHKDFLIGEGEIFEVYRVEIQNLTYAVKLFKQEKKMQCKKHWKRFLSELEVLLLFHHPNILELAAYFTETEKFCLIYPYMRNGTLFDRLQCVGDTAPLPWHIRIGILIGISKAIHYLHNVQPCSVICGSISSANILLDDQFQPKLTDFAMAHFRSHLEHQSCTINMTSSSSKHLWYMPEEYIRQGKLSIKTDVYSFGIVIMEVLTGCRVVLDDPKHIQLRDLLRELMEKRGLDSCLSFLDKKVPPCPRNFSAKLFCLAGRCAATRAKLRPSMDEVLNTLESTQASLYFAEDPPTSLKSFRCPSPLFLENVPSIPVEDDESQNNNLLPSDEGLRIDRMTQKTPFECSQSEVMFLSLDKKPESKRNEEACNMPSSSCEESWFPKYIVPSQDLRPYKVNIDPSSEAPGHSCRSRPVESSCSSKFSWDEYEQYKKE

SMILES	inhibition [1] [%]	inhibition [2] [%]	inhibition [3]	inhibition [4]	inhibition [5] [%]	inhibition [6] [%]	inhibition [7] [%]	inhibition [8]	inhibition [9] [%]	inhibition at 1 µM [10] [%]	inhibition [11] [%]	inhibition [12] [%]	inhibition [13] [%]	inhibition [14] [%]	inhibition [15] [%]
CCN1CCN(Cc2ccc(NC(=O)c3ccc(C)c(Oc4ccnc5[nH]ccc45)c3)cc2C(F)(F)F)CC1	1.2	5.8	inactive	inactive	-2.8	-3.5	10.8	inactive	14.7	–	–	–	–	–	–
CNc1cc(Oc2cc(C(=O)Nc3cc(N4CCN(C)CC4)cc(C(F)(F)F)c3)ccc2C)ncn1	–	–	–	–	–	–	–	–	–	10.4	9	3.6	33.2	-4.9	12.8
